From article PMC9687798, “Atypical Substrates of the Organic Cation Transporter 1” (Biomolecules, 2022)
Several values for one entry are separate records, joined by “and”; a condition that tells them apart may be missing. Identical values can stand only once.

Experiments:
[1] = biological target: T1, wild-type human OCT2 (Homo sapiens, UniProt O15244); experiment: Cellular uptake ratio, OCT2-overexpressing HEK293 cells vs empty vector; type: cell-based; conditions: for uptake by OCT2 (normalised to empty vector): 1 µM and 100 µM substance; for OCT2 transport category: based on ratio uptake data at 1 µM
T1 sequence (O15244 1-555): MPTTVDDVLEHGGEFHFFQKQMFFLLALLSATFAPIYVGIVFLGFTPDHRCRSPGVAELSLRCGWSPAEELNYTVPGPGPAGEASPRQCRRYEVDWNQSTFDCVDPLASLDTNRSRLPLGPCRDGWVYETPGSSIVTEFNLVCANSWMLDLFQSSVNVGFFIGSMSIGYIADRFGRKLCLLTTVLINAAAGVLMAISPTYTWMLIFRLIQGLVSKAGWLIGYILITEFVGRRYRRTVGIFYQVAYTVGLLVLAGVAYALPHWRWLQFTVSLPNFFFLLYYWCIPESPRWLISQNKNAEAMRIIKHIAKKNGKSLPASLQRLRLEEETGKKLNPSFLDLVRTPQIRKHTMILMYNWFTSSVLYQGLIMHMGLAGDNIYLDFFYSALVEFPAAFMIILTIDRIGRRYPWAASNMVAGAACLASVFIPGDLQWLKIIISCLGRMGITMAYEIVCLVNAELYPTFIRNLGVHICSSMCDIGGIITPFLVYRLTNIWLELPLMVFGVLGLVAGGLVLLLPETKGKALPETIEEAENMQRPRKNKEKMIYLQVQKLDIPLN
Outline: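 Flp-In HEK293 cells stably expressing transporter, or empty pcDNA5/FRT vector as control, incubated at 37 °C in HBSS with 10 mM HEPES, pH 7.4, with substrate. Uptake quantified by LC-MS with internal standard and normalised to total protein. Ratio = total uptake in transporter cells divided by that in empty-vector cells.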

[2] = biological target: T2, variant human OCT1*2 (M420del) (Homo sapiens, UniProt O15245, DEL420-420); experiment: Cellular uptake by HEK293 cells overexpressing OCT1*2; type: cell-based; conditions: for uptake by OCT1*2 in comparison to OCT1*1: 1 µM substance; for uptake of prostaglandins by OCT1*2 in comparison to wild-type: 1, 10 and 100 µM, 120 s
T2 construct: expressed in transfected cells
T2 sequence (O15245 with tags, fused parts or gaps DEL420-420): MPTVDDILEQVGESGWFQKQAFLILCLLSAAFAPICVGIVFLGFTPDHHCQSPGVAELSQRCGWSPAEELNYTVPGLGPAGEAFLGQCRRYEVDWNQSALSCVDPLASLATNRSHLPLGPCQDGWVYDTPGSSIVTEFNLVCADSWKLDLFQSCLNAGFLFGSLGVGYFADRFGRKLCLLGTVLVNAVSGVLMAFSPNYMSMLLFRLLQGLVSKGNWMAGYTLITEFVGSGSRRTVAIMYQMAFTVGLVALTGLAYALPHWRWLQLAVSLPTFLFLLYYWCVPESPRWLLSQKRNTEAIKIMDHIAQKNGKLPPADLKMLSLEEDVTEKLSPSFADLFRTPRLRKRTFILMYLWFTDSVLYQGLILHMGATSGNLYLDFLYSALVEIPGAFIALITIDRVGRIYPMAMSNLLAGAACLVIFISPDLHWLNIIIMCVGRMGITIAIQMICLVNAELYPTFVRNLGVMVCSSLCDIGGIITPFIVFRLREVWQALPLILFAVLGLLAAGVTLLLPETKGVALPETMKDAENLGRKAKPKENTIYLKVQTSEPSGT
Protocol: The wild-type cell lines of OCT1 and OCT2, as well as the variant cell lines OCT1*2 and *3, were generated using the Flp-In system (Thermo Fisher Scientific, Darmstadt, Germany) as described in previous publications. The cell line overexpressing OCT3 was a kind gift from Dr. Koepsell and Dr. Gorbulev (University of Würzburg, Germany). Cells transfected with the empty pcDNA5/FRT vector were used for the transport experiments as a control cell line. All cells were cultured approximately up to passage 30.
Forty-eight hours before the transport experiments, 600,000 cells were plated on 12-well plates pre-coated with poly-D-lysine and incubated at 37 °C with 5% CO2. The prepared 12-well plate with cells was positioned on a heating plate pre-warmed to 37 °C. After removing the medium, the cells were washed with 37 °C HBSS+ (10 mM HEPES in Hank’s balanced salt solution, pH 7.4). Then, one pre-defined concentration of a substrate was added to each well. The incubation period was stopped by adding 2 mL of 4 °C HBSS+ and removing the cells from the heating plate. The cells were washed twice with 4 °C HBSS+. For cell lysis, the cells were incubated for 15 min with 500 µL of 80% acetonitrile (LGC Standards, Wesel, Germany), which contained a respective internal standard (Table 1).
For concentration-dependent transport, the cells were incubated with defined substrate concentrations (0.1, 1, 10, 30, 100, 300, 600, 1000 µM) for the respective pre-defined incubation times. […] The uptake by a transporter was normalised to the uptake by empty vector-transfected cells. […] The results of transport experiments were normalized to the total protein concentration per well. Total protein quantification was performed using a bicinchoninic acid assay with bovine serum albumin as standard.
The ratios of cellular uptake were calculated by dividing the total uptake of transporter-overexpressing cells by the total uptake into empty vector transfected cells. The concentration-dependent cellular net uptake was used for analysis of transport kinetics by subtracting for each substrate concentration the uptake of empty vector-transfected cells from the uptake of transporter-overexpressing cells. […] The intrinsic clearance Clint was expressed with the ratio of Vmax and KM.

[3] = biological target: T3, human OCT1*1 (wild-type) (Homo sapiens, UniProt O15245); experiment: Concentration-dependent uptake (transport kinetics) in HEK293 cells overexpressing OCT1 wild-type; conditions: for Vmax (±SEM): net uptake (OCT1 minus empty vector), HEK293, 0.1-1000 µM substrate, Michaelis–Menten; for OCT1 substrate classification from concentration-dependent uptake: good >5, poor 1–5, non-substrate <1 µL/mg protein/min or uptake not above empty vector; for Clint (±SEM): intrinsic clearance = ratio of Vmax and KM, OCT1 wild-type
T3 sequence (O15245 1-554): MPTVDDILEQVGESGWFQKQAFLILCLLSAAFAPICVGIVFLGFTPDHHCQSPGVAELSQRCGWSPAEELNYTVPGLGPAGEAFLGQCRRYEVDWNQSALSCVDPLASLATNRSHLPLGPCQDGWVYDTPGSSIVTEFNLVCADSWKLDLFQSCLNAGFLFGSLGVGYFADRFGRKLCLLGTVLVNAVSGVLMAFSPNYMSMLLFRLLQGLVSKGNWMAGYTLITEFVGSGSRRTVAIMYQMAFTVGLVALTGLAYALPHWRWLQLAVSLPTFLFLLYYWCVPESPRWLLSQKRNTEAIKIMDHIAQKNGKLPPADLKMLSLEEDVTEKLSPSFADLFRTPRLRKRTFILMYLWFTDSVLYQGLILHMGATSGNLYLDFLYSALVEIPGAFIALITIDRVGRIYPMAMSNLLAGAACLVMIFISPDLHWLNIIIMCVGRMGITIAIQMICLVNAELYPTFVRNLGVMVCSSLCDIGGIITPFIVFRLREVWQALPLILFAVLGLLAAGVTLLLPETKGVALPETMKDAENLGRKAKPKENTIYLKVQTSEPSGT

uptake by OCT2 (normalised to empty vector) [1]	uptake by OCT1*2 in comparison to OCT1*1 [2]	Vmax (±SEM) [3] [pmol/mg Protein/min]	OCT1 substrate classification from concentration-dependent uptake [3]	Clint (±SEM) [3]	Clint (±SEM) ([3]; listed as emtricitabine) [µL/mg Protein/min]	Clint (±SEM) ([3]; listed as levodopa) [µL/mg Protein/min]	Clint (±SEM) ([3]; listed as prostaglandin E2) [µL/mg Protein/min]	Clint (±SEM) ([3]; listed as prostaglandin F2α) [µL/mg Protein/min]	SMILES	OCT2 transport category [1]	uptake of prostaglandins by OCT1*2 in comparison to wild-type [2]
only minimal	reduction in uptake	300 ± 16.9							COc1cc(Cc2cnc(N)nc2N)cc(OC)c1OC [Trimethoprim, trimethoprim]	+/− (poor transport with a Clint < 5 or ratio between 1–2 with statistical significance (p < 0.05))	
cellular uptake by OCT2 was observed	reduction in uptake			6.15 ± 2.82 µL/mg Protein/min	6.15				Nc1nc(=O)n([C@@H]2CS[C@H](CO)O2)cc1F [Emtricitabine, emtricitabine]		
		4993 ± 884		13.8 ± 8.6 µL/mg Protein/min		13.8			N[C@@H](Cc1ccc(O)c(O)c1)C(=O)O [Levodopa, levodopa]	0 (no transport by OCT1, OCT2, and OCT3 occurred (i.e., no kinetic parameters or uptake ratio <2 without significance))	
		4119	(poor) substrates of OCT1	3.50 ± 3.42 µL/mg Protein/min			3.5		CCCCC[C@H](O)/C=C/[C@H]1[C@H](O)CC(=O)[C@@H]1C/C=C\CCCC(=O)O [Prostaglandin E2, prostaglandin E2]		reduced to the level of the control cell line
cellular uptake by OCT2 was observed	reduction in uptake		poor transport efficiency	2.57 ± 0.65 µL/mg Protein/min					Nc1ccn([C@H]2CC[C@@H](CO)O2)c(=O)n1 [Zalcitabine, zalcitabine]	+ (good substrates of OCTs when the intrinsic clearance is between 5–15 or the ratio is 2–10)	
		1007	(poor) substrates of OCT1	1.40 ± 1.09 µL/mg Protein/min				1.4	CCCCC[C@H](O)/C=C/[C@@H]1[C@@H](C/C=C\CCCC(=O)O)[C@@H](O)C[C@H]1O [Prostaglandin F2α, prostaglandin F2α]		reduced to the level of the control cell line

SMILES	uptake by OCT2 (normalised to empty vector) [1]	uptake by OCT1*2 in comparison to OCT1*1 [2]	Vmax (±SEM) [3] [pmol/mg Protein/min]	OCT1 substrate classification from concentration-dependent uptake [3]	Clint (±SEM) [3]	Clint (±SEM) ([3]; listed as emtricitabine) [µL/mg Protein/min]	Clint (±SEM) ([3]; listed as levodopa) [µL/mg Protein/min]	Clint (±SEM) ([3]; listed as prostaglandin E2) [µL/mg Protein/min]	Clint (±SEM) ([3]; listed as prostaglandin F2α) [µL/mg Protein/min]	OCT2 transport category [1]	uptake of prostaglandins by OCT1*2 in comparison to wild-type [2]
N=C(N)c1ccc(OCCCCCOc2ccc(C(=N)N)cc2)cc1 [Pentamidine, pentamidine]		to a small extent	143 ± 63.1	poor substrate of OCT1	1.15 µL/mg Protein/min and 1.15 ± 1.75 µL/mg Protein/min					0 (no transport by OCT1, OCT2, and OCT3 occurred (i.e., no kinetic parameters or uptake ratio <2 without significance))	
